# Key:
# Test in all cases: relative viability (nuclei count vs DMSO), 5 days (fraction); higher = more cells survive
# RU-SKI 43 + OSI-027 = compound: CC[C@@H](C)CNCC(=O)N1CCC2=C([C@@H]1COC3=CC=CC(=C3)C)C=CS2 [RU-SKI 43] + COc1cccc2cc(-c3nc([C@H]4CC[C@H](C(=O)O)CC4)n4ncnc(N)c34)[nH]c12 [OSI-027] (partner 0.5 µM)
# Outline: (§1)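 Lung cancer cell lines, seeded in 1536-well plates, were treated the following day by pin tool with a single drug or with five library-drug doses (not always all listed) in √10 steps on top of a fixed anchor-drug dose. Cells were fixed and nuclei stained in one step after 5 days, and nuclei were counted. Relative viability is the nuclei count for treated wells divided by that for vehicle wells, reported as medians of duplicate plates.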
# RU-SKI 43 + Vorinostat = compound: CC[C@@H](C)CNCC(=O)N1CCC2=C([C@@H]1COC3=CC=CC(=C3)C)C=CS2 [RU-SKI 43] + O=C(CCCCCCC(=O)Nc1ccccc1)NO [Vorinostat] (partner 1 µM)
# Outline: as §1
# Irinotecan + OSI-027 = compound: CCc1c2c(nc3ccc(OC(=O)N4CCC(N5CCCCC5)CC4)cc13)-c1cc3c(c(=O)n1C2)COC(=O)[C@]3(O)CC [Irinotecan] + COc1cccc2cc(-c3nc([C@H]4CC[C@H](C(=O)O)CC4)n4ncnc(N)c34)[nH]c12 [OSI-027] (partner 0.5 µM)
# Outline: as §1
# MK-8033 + Alpelisib = compound: Cn1cc(-c2cnc3ccc4ccc(CS(=O)(=O)NCc5ccccn5)cc4c(=O)c3c2)cn1 [MK-8033] + Cc1nc(NC(=O)N2CCC[C@H]2C(N)=O)sc1-c1ccnc(C(C)(C)C(F)(F)F)c1 [Alpelisib] (partner 2 µM)
# Outline: as §1
Cell Line,relative viability (RU-SKI 43 + OSI-027; first compound 0.1 µM),relative viability (RU-SKI 43 + OSI-027; first compound 0.3162 µM),relative viability (RU-SKI 43 + OSI-027; first compound 1 µM),relative viability (RU-SKI 43 + OSI-027; first compound 3.162 µM),relative viability (RU-SKI 43 + OSI-027; first compound 10 µM),relative viability (RU-SKI 43 + Vorinostat; first compound 0.1 µM),relative viability (RU-SKI 43 + Vorinostat; first compound 0.3162 µM),relative viability (RU-SKI 43 + Vorinostat; first compound 1 µM),relative viability (RU-SKI 43 + Vorinostat; first compound 3.162 µM),relative viability (RU-SKI 43 + Vorinostat; first compound 10 µM),relative viability (Irinotecan + OSI-027; first compound 0.6325 µM),relative viability (Irinotecan + OSI-027; first compound 2 µM),relative viability (Irinotecan + OSI-027; first compound 6.325 µM),relative viability (Irinotecan + OSI-027; first compound 20 µM),relative viability (MK-8033 + Alpelisib; first compound 0.02 µM),relative viability (MK-8033 + Alpelisib; first compound 0.06325 µM),relative viability (MK-8033 + Alpelisib; first compound 0.2 µM),relative viability (MK-8033 + Alpelisib; first compound 0.6325 µM),relative viability (MK-8033 + Alpelisib; first compound 2 µM)
SK-MES-1,0.491,0.65,0.737,0.791,0.569,1.15,1.45,1.28,1.21,1.1,0.428,0.538,0.434,0.15,0.927,0.811,0.89,0.936,0.96
HOP-62,0.912,1.02,1.1,0.915,0.928,0.563,0.693,0.632,0.724,0.639,0.48,0.768,0.224,0.22,0.987,0.75,1.05,0.956,0.938
NCI-H520,0.301,0.303,0.287,0.251,0.349,0.77,0.745,0.788,0.704,0.646,0.292,0.316,0.218,0.192,0.806,0.841,0.832,0.905,0.871
EBC-1,,,,,,,,,,,,,,,0.832,0.686,0.904,0.678,0.207
BEN,0.31,0.292,0.306,0.302,0.33,0.621,0.531,0.665,0.639,0.546,0.296,0.271,0.31,0.255,0.914,0.89,1,1.08,1
NCI-H322M,0.548,0.511,0.581,0.576,0.575,0.83,0.925,0.911,0.998,0.782,0.414,0.479,0.521,0.216,0.697,0.77,0.801,0.792,0.839
LU99A,0.298,0.282,0.314,0.309,0.317,0.476,0.558,0.479,0.447,0.359,0.202,0.243,0.181,0.242,0.629,0.489,0.523,0.464,0.412
NCI-H2405,0.618,0.56,0.615,0.684,0.569,1.1,1.11,1.18,1.02,1,,0.596,0.382,0.289,0.732,0.731,0.699,0.765,0.736
NCI-H1395,0.717,0.684,0.747,0.558,0.6,0.844,0.602,1.07,0.611,0.91,0.352,0.561,0.45,0.438,1.2,1,1.16,1.13,1.05
HCC-44,0.511,,0.777,0.479,0.611,1.14,1.12,1.12,1.15,1.05,,0.721,0.289,0.213,0.798,0.775,0.751,0.796,0.789
NCI-H441,0.677,0.511,0.665,0.6,0.481,0.752,0.97,0.97,0.741,0.849,0.371,0.448,0.281,0.327,0.853,0.643,0.648,0.709,0.67
Calu-6,,,,,,,,,,,,,,,1.02,1.02,0.843,0.941,0.916
CAL-12T,0.612,0.447,0.721,0.911,0.543,0.77,0.89,0.909,0.699,0.692,,0.798,0.357,0.101,1.08,1.08,1.08,1.25,1.06
HCC-78,0.392,0.392,0.406,0.386,0.419,0.531,0.378,0.469,0.475,0.439,0.37,0.35,0.229,0.235,0.271,0.293,0.267,,0.357
NCI-H2170,0.709,0.745,0.761,0.809,0.667,0.831,1.06,0.763,0.843,0.889,0.546,0.767,0.255,0.174,0.652,0.758,0.691,0.773,0.772
NCI-H1623,0.435,0.421,0.428,0.443,0.448,,,,,,0.415,0.415,0.303,0.294,,,,,
NCI-H23,0.659,0.523,0.782,0.709,0.5,0.473,0.602,0.571,0.587,0.48,0.327,0.603,0.176,0.288,0.737,0.639,0.679,0.668,0.633
COR-L 105,0.672,0.817,0.708,0.677,0.665,0.8,0.913,0.796,0.886,0.895,0.773,0.859,0.565,0.166,0.822,1.07,0.962,0.928,0.733
LOU-NH91,0.752,0.642,0.74,0.774,0.728,1.01,0.871,1.03,0.979,0.902,0.688,0.688,0.386,0.365,0.727,,0.69,0.702,0.699
NCI-H650,0.496,0.467,0.643,0.494,0.565,0.497,0.369,,0.455,0.459,0.467,0.587,0.316,0.277,1.08,1.1,1.01,1.16,1.17

Cell Line,relative viability (RU-SKI 43 + OSI-027; first compound 0.1 µM),relative viability (RU-SKI 43 + OSI-027; first compound 0.3162 µM),relative viability (RU-SKI 43 + OSI-027; first compound 1 µM),relative viability (RU-SKI 43 + OSI-027; first compound 3.162 µM),relative viability (RU-SKI 43 + OSI-027; first compound 10 µM),relative viability (RU-SKI 43 + Vorinostat; first compound 0.1 µM),relative viability (RU-SKI 43 + Vorinostat; first compound 0.3162 µM),relative viability (RU-SKI 43 + Vorinostat; first compound 1 µM),relative viability (RU-SKI 43 + Vorinostat; first compound 3.162 µM),relative viability (RU-SKI 43 + Vorinostat; first compound 10 µM),relative viability (Irinotecan + OSI-027; first compound 0.6325 µM),relative viability (Irinotecan + OSI-027; first compound 2 µM),relative viability (Irinotecan + OSI-027; first compound 6.325 µM),relative viability (Irinotecan + OSI-027; first compound 20 µM),relative viability (MK-8033 + Alpelisib; first compound 0.02 µM),relative viability (MK-8033 + Alpelisib; first compound 0.06325 µM),relative viability (MK-8033 + Alpelisib; first compound 0.2 µM),relative viability (MK-8033 + Alpelisib; first compound 0.6325 µM),relative viability (MK-8033 + Alpelisib; first compound 2 µM)
NCI-H2023,0.442,0.455,0.465,0.413,0.372,0.742,0.918,0.772,0.815,0.602,0.319,0.377,0.238,0.0537,0.655,0.516,0.5,0.474,0.521
NCI-H1563,0.772,0.778,0.819,0.75,0.786,,,,,,0.704,0.843,0.865,0.589,1.02,0.918,0.883,1.02,0.93
LCLC-103H,0.512,0.576,0.567,0.486,0.56,0.804,0.821,0.855,0.781,0.729,0.483,0.496,0.339,0.347,1.07,0.872,0.94,0.942,0.959
HCC-15,0.733,0.805,0.75,0.803,0.625,0.808,0.932,0.881,0.839,0.869,,0.441,0.198,0.14,0.847,0.947,0.863,0.841,0.875
NCI-H838,0.431,0.264,0.355,0.417,0.38,0.745,0.842,0.733,0.744,0.633,0.508,0.37,0.368,0.257,1,0.979,0.94,0.98,0.974
NCI-H2009,0.69,0.599,0.698,0.699,0.601,0.692,0.757,0.751,0.693,0.679,0.491,0.508,0.314,0.124,1.13,1.12,1.09,1.11,1.14
NCI-H2228,0.651,0.722,0.483,0.689,0.471,0.603,0.928,0.828,0.727,0.596,0.341,0.472,0.288,0.342,0.815,0.551,0.629,0.768,0.841
NCI-H460,0.643,1.24,1.14,0.913,0.521,0.81,1.3,0.787,0.75,0.565,0.347,0.494,0.12,0.043,0.496,0.368,0.348,0.4,0.435
NCI-H522,0.823,0.726,0.71,0.708,0.716,0.88,0.803,1.01,0.941,0.932,1.07,0.643,0.645,0.569,,,,,
NCI-H1703,,,,,,,,,,,,,,,0.407,0.273,0.354,0.266,0.309
NCI-H1793,0.257,0.21,0.348,0.28,0.257,0.799,0.742,0.872,0.792,0.602,,0.251,0.255,0.198,0.608,,0.54,0.603,0.816
NCI-H1650,0.597,0.584,0.835,0.618,0.618,0.55,0.674,0.523,0.583,0.589,,0.902,0.575,0.196,,,,,
NCI-H1648,,,0.255,0.251,0.221,0.416,0.572,0.563,0.51,0.754,0.238,0.242,0.255,0.268,,,,,
NCI-H1299,,,,,,,,,,,,,,,0.985,1.02,1.07,0.99,1.1
NCI-H1792,0.682,1.05,0.969,0.939,0.707,,,,,,0.7,0.617,0.456,0.231,0.729,0.59,0.768,0.776,0.693
IA-LM,,,,,,0.795,0.993,0.964,0.978,0.977,,,,,0.787,0.536,0.723,0.736,0.729
SW 900,0.684,0.595,0.782,0.604,0.53,0.36,0.584,0.782,0.621,0.221,0.298,0.632,0.4,0.424,,,,,
NCI-H2342,0.541,0.594,0.622,0.641,0.62,0.724,,0.718,0.884,0.716,0.58,0.551,0.607,0.439,,,,,
ChaGo-K-1,0.658,0.632,0.646,0.579,0.744,0.759,0.731,0.853,0.77,0.762,0.272,0.39,0.215,0.212,,,,,
A549,,,,,,,,,,,,,,,0.692,0.685,0.83,0.456,0.651
